Measured values as given in patent publication US20220008382A1, “ALCOHOL ANTIDOTE” (Evanium Healthcare GmbH, priority 2018, published 2022).
In brackets after ≈: the same amount, converted by molar mass.

Key:
[1] = Saturation solubility in dist. water (HPLC), β-CD complexes; format: physicochemical; details: distilled water, thermodynamic from solid, saturated solution shaken 60 minutes, HPLC DAD-254 nm, read-out: Solubility of taxifolin
Method: Saturation Solubility in Dist. Water (HPLC)
The last most important point in terms of comparing the production methods to one another is solubility in distilled water. The solubility of the complex has a direct influence on bioavailability, because only dissolved complexes/active ingredients can pass the epithelial cells of the GI tract. Moreover, the samples were examined for rel. substances in order to identify possible degradation of the active ingredient during the production process.
10 mg taxifolin (Lavitol® 98.9% purity) was placed in a vial with 5 ml dist. water to make a saturated solution and shaken for 60 minutes. The solution was then transferred to a vial using a syringe with an HPLC filter (0.22 μm) and then measured undiluted (HPLC DAD-254 nm).
500 mg of the sample was placed in a vial with 6 ml dist. water to make a saturated solution and shaken for 60 minutes. The solution was then transferred to a vial using a syringe with an HPLC filter (0.22 μm), diluted 10:1 with distilled water to prevent oversaturation, and then measured (HPLC DAD-254 nm). The taxifolin concentration was calculated in mg/ml based on the peak area, taking into account the dilution.

[2] = Saturation solubility in dist. water (HPLC), γ-CD complexes; format: physicochemical; details: thermodynamic from solid, saturated solution shaken 60 minutes, HPLC DAD-254 nm
Method: 10 mg taxifolin (Lavitol® 98.9% purity) was placed in a vial with 5 ml dist. water to make a saturated solution and shaken for 60 minutes. The solution was then transferred to a vial by means of a syringe with an HPLC filter (0.22 μm) and then measured (HPLC DAD-254 nm).
300 mg of the sample was placed in a vial with 5 ml dist. water to produce a saturated solution and shaken for 60 minutes. The solution was then transferred to a vial using a syringe with an HPLC filter (0.22 μm) and then measured undiluted (HPLC DAD-254 nm).

[3] = Solubility of the solid dispersion with Eudragit E in 0.1 N HCl (simulated gastric juices); format: physicochemical; details: simulated gastric fluid, thermodynamic from solid, saturated solution, room temperature, HPLC, read-out: Solubility of taxifolin
Method: The last most important point for comparing the production methods to one another is solubility in simulated gastric juices. That is, the solubility of the complex directly influences bioavailability, because only dissolved active ingredients can pass the epithelial cells of the GI tract
10 mg taxifolin (Lavitol® 98.9% purity) was placed in a vial with 5 ml 0.1 N HCl to make a saturated solution and shaken for 60 minutes. The solution was then transferred into a vial by means of a syringe with an HPLC filter (0.22 μm) and then measured.
Saturated solutions of the samples in 0.1 molar HCl solution were prepared at room temperature. The solution was then transferred to a vial by means of a syringe with an HPLC filter (0.22 μm), appropriately diluted and the taxifolin concentration of the solution was determined by HLPC.

[4] = Dissolution behaviour, USP apparatus II (paddle); format: physicochemical; details: 100 rpm; for Mean release: N=2, 500 ml 0.1 N HCl
Method: In order to check the dissolution behaviour of the final formulations, dissolution studies of the cyclodextrin and the Eudragit formulation against pure taxifolin were carried out.
Method: In order to determine the dissolution behaviour, the usual procedure according to pharmacopoeia was chosen.
USP apparatus II (paddle); 100 rpm; medium: 500 ml 0.1 N HCl; 2 vessels per sample (N=2); 7 sampling points: 0 min, 5 min, 10 min, 15 min, 20 min, 30 min, 60 min; weighed in: formulation as a powder corresponding to 100 mg taxifolin; detection by HPLC
The following formulations were tested: • taxifolin (Ametis Lavitol®, 98.8% purity) • Eudragit® E CSE 2:1 (solid dispersion formulation) • FD β (cyclodextrin formulation)

[5] = Solubility of taxifolin in organic solvents; format: physicochemical
[6] = in vivo; cited from earlier work
[7] = tested on: GABAA receptor α+/β− interface; details: cited from earlier work
[8] = tested on: GABAA receptor β+/α− interface at the amino acid β-265ASN; details: cited from earlier work

Compound: O=C1c2c(O)cc(O)cc2O[C@H](c2ccc(O)c(O)c2)[C@H]1O [Taxifolin reference, (+)taxifolin]
- solubility at 60 min [1]: 750 µg/mL (≈ 2460 µM)
- solubility at 60 min [2]: 750 µg/mL (≈ 2460 µM)
- solubility at 60 min [3]: 693 µg/mL (≈ 2280 µM)
- Mean release ([4]; 5 min): 29%
- Release ([4]; 5 min, vessel 1, 500 ml 0.1 N HCl): 28.2%
- Release ([4]; 5 min, vessel 2, 500 ml 0.1 N HCl): 29.2%
- Mean release ([4]; 10 min): 46%
- Release ([4]; 10 min, vessel 1, 500 ml 0.1 N HCl): 46.4%
- Release ([4]; 10 min, vessel 2, 500 ml 0.1 N HCl): 44.8%
- Mean release ([4]; 15 min, listed as taxifolin): 60%
- Mean release ([4]; 15 min, listed as taxifolin (reference)): 60%
- Release ([4]; 15 min, vessel 1, 500 ml 0.1 N HCl): 61.1%
- Release ([4]; 15 min, vessel 2, 500 ml 0.1 N HCl): 58.7%
- Mean release ([4]; 20 min): 69%
- Release ([4]; 20 min, vessel 1, 500 ml 0.1 N HCl): 70.4%
- Release ([4]; 20 min, vessel 2, 500 ml 0.1 N HCl): 67.5%
- Mean release ([4]; 30 min): 79%
- Release ([4]; 30 min, vessel 1, 500 ml 0.1 N HCl): 80.8%
- Release ([4]; 30 min, vessel 2, 500 ml 0.1 N HCl): 77.4%
- Mean release ([4]; 60 min): 92%
- Release ([4]; 60 min, vessel 1, 500 ml 0.1 N HCl): 90.8%
- Release ([4]; 60 min, vessel 2, 500 ml 0.1 N HCl): 93.1%
- Solubility in acetone and ethyl acetate [5]: very soluble
- Solubility in diethyl ether [5]: insoluble
- NOAEL level [6]: 1500 mg/kg

Compound: CCO [ethanol]
- Concentration from which the high-affinity binding site is occupied [7]: ≥ 3 mM
- Concentration from which the low-affinity binding site is occupied [8]: ≥ 50 mM
